How the values were obtained:
Assay in all cases: radiometric filter-binding kinase assay
AURKB (human) = AURKB (human) (UniProt Q96GD4)
RIPK2 (human) = RIPK2 (human) (UniProt O43353)
PAK7 (human) = PAK7 (human) (UniProt Q9P286)
DYRK2 (human) = DYRK2 (human) (UniProt Q92630)
PAK4 (human) = PAK4 (human) (UniProt O96013)
CSK (human) = CSK (human) (UniProt P41240)
MAP2K2 (human) = MAP2K2 (human) (UniProt P36507)
MAPKAPK2 (human) = MAPKAPK2 (human) (UniProt P49137)
EPHB3 (human) = EPHB3 (human) (UniProt P54753)
MAP3K7 TAB1 (human) = MAP3K7 TAB1 (human) (UniProt Q15750+O43318)
MAPK14 (human) = MAPK14 (human) (UniProt Q16539)
MAPK15 (human) = MAPK15 (human) (UniProt Q8TD08)
IGF1R (human) = IGF1R (human) (UniProt P08069)
PIM1 (human) = PIM1 (human) (UniProt P11309)
MELK (human) = MELK (human) (UniProt Q14680)
MAPKAPK5 (human) = MAPKAPK5 (human) (UniProt Q8IW41)
CaMK1 (human) = CaMK1 (human) (UniProt Q14012)
IKBKE (human) = IKBKE (human) (UniProt Q14164)
PRKACA (human) = PRKACA (human) (UniProt P17612)
MAP3K11 (human) = MAP3K11 (human) (UniProt Q16584)
HIPK2 (human) = HIPK2 (human) (UniProt Q9H2X6)
MAPK8 (human) = MAPK8 (human) (UniProt P45983)
IKBKB (human) = IKBKB (human) (UniProt O14920)
YES1 (human) = YES1 (human) (UniProt P07947)
MKNK2 (human) = MKNK2 (human) (UniProt Q9HBH9)
EPHB2 (human) = EPHB2 (human) (UniProt P29323)
DYRK1A (human) = DYRK1A (human) (UniProt Q13627)
MAPK12 (human) = MAPK12 (human) (UniProt P53778)
BRSK1 (human) = BRSK1 (human) (UniProt Q8TDC3)
CSNK1D (human) = CSNK1D (human) (UniProt P48730)
MINK1 (human) = MINK1 (human) (UniProt Q8N4C8)
BTK (human) = BTK (human) (UniProt Q06187)
MAPK9 (human) = MAPK9 (human) (UniProt P45984)
CAMKK2 (human) = CAMKK2 (human) (UniProt Q96RR4)
EPHA4 (human) = EPHA4 (human) (UniProt P54764)
Chain of EPHA4 (human) (P54764 whole entry, looked up): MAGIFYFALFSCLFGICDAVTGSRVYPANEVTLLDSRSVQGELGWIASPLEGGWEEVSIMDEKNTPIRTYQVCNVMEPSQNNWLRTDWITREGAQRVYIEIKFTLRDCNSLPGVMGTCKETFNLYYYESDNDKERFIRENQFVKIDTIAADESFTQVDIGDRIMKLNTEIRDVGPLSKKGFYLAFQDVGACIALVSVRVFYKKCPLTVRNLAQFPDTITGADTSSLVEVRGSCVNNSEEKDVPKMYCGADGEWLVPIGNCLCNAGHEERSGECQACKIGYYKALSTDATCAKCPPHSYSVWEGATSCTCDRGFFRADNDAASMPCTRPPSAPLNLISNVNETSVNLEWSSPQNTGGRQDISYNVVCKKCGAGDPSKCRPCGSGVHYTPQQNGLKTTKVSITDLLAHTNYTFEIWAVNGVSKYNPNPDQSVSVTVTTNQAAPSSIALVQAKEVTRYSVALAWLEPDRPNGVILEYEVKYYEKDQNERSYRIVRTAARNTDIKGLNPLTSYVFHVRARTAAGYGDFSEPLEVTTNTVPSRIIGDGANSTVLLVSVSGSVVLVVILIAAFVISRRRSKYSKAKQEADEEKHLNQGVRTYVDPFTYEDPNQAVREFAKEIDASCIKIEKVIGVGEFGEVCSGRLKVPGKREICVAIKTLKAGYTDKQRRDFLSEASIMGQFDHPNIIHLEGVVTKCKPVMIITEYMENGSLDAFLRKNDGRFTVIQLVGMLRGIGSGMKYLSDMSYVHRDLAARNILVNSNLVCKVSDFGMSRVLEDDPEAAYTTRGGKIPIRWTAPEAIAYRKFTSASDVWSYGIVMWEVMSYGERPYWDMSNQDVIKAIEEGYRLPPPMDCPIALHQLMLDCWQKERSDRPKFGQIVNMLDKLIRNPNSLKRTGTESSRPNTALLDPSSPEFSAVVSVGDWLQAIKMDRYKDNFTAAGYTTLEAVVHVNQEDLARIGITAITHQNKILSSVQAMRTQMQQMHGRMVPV

Chain of IKBKB (human) (O14920 whole entry, looked up): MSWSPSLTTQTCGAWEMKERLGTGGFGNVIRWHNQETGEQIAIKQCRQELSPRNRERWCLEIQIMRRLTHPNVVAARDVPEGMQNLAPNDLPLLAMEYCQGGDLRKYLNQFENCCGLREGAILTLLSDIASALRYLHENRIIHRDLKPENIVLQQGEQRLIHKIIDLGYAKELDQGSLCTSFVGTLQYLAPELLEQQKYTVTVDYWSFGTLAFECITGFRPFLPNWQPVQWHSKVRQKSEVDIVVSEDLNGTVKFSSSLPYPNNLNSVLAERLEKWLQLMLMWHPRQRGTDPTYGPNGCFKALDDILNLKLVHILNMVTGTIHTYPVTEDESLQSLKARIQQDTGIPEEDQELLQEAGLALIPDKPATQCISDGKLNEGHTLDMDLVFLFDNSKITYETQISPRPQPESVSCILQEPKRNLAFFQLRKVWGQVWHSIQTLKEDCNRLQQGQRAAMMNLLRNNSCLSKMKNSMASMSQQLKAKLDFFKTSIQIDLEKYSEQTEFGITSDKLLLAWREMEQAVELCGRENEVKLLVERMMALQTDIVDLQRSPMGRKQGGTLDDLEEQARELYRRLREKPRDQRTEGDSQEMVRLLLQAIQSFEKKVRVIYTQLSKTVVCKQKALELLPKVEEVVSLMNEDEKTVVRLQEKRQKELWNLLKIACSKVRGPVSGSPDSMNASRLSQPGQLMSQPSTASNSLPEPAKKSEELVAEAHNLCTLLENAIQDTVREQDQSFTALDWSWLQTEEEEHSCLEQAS
Chain of MAPK15 (human) (Q8TD08 whole entry, looked up): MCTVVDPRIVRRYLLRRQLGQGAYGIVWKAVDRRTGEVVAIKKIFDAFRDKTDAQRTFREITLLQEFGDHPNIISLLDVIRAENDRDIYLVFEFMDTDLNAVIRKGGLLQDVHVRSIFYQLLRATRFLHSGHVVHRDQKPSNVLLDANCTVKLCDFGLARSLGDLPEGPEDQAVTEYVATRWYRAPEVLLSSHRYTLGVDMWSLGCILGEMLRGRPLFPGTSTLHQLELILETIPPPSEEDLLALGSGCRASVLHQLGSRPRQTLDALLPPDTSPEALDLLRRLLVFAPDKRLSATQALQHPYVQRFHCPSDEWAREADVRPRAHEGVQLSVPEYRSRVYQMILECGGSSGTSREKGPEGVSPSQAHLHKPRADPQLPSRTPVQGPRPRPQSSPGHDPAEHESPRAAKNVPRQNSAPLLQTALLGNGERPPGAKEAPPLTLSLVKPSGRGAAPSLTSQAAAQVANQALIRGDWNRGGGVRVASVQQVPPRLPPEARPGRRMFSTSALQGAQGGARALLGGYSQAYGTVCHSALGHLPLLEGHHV
Chain of PAK7 (human) (Q9P286 whole entry, looked up): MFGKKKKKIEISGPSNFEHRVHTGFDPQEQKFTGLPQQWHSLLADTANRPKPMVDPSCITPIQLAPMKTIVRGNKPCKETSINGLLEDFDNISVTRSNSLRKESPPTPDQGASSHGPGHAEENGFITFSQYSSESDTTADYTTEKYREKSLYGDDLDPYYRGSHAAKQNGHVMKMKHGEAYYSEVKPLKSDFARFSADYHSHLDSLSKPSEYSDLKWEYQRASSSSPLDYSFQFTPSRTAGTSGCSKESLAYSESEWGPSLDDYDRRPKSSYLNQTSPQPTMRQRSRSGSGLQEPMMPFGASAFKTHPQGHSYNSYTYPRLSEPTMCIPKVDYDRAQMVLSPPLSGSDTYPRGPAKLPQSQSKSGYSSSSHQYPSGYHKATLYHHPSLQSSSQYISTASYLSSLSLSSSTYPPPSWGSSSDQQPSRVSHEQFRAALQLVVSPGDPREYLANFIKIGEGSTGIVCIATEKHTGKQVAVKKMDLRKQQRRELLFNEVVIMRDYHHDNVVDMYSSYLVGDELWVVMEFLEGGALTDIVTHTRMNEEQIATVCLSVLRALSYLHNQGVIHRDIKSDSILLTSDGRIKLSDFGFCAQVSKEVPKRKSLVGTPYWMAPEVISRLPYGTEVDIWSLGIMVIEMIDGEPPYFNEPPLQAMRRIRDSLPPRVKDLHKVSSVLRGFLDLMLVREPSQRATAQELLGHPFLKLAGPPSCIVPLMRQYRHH
Chain of MAPKAPK2 (human) (P49137 whole entry, looked up): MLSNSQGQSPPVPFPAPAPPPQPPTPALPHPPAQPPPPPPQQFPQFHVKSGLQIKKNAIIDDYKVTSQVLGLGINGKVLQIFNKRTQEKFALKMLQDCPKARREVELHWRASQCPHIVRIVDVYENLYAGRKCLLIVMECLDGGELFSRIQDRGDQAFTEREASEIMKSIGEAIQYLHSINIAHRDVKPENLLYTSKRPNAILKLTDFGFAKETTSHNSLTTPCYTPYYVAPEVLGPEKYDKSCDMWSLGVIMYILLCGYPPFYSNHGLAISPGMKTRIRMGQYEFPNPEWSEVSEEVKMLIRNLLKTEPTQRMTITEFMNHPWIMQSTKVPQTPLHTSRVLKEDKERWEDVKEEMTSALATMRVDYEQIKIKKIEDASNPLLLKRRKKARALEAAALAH
Chain of EPHB3 (human) (P54753 whole entry, looked up): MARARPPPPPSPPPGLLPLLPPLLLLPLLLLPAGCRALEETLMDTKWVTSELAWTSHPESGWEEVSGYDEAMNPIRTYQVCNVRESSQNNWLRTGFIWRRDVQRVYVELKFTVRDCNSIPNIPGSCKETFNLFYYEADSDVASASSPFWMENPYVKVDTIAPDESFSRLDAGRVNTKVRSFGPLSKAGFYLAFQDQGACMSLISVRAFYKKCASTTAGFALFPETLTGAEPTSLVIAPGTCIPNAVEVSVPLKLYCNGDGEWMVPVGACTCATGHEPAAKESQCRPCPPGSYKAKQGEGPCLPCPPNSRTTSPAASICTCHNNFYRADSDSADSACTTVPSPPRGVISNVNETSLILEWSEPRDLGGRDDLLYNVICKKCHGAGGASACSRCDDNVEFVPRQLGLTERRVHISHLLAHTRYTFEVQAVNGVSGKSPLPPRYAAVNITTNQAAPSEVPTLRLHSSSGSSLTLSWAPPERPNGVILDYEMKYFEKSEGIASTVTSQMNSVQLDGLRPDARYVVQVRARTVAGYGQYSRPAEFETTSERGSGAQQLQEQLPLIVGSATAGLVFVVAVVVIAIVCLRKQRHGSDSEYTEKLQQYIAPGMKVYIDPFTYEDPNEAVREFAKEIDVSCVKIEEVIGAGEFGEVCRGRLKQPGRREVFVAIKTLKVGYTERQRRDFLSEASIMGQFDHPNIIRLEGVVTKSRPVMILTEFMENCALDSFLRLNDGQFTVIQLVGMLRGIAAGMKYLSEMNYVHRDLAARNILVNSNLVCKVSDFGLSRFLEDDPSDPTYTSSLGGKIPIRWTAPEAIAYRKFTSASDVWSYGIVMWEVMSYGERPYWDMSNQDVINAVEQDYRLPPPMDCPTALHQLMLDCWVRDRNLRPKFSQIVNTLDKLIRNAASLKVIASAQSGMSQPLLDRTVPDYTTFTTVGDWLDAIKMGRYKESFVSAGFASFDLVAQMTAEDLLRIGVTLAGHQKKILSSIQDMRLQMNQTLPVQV
Chain of CSNK1D (human) (P48730 whole entry, looked up): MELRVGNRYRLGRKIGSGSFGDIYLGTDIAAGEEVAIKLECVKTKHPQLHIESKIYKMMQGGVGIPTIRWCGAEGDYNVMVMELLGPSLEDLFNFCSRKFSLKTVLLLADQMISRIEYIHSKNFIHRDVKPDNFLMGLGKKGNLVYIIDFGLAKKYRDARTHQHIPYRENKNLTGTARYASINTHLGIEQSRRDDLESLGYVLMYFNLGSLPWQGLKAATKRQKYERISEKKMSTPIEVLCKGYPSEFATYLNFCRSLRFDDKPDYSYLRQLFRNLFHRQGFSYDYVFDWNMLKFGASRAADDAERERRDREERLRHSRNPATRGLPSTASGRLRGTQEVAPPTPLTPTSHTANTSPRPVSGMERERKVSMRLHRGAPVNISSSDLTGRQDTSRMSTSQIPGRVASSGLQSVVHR

Oc1ccc2ccccc2c1SSc1c(O)ccc2ccccc12
residual activity (AURKB (human); compound 1.0 µM): 2%
residual activity (AURKB (human); compound 5.0 µM): 2%
residual activity (AURKB (human); compound 10.0 µM): 5%
residual activity (RIPK2 (human); compound 1.0 µM): 117%
residual activity (RIPK2 (human); compound 5.0 µM): 114%
residual activity (PAK7 (human); compound 1.0 µM): 99%
residual activity (PAK7 (human); compound 5.0 µM): 49%
residual activity (PAK7 (human); compound 10.0 µM): 121%
residual activity (DYRK2 (human); compound 1.0 µM): 68%
residual activity (DYRK2 (human); compound 5.0 µM): 45%
residual activity (DYRK2 (human); compound 10.0 µM): 64%
residual activity (PAK4 (human); compound 1.0 µM): 119%
residual activity (PAK4 (human); compound 5.0 µM): 45%
residual activity (PAK4 (human); compound 10.0 µM): 98%
residual activity (CSK (human); compound 1.0 µM): 102%
residual activity (CSK (human); compound 5.0 µM): 109%
residual activity (CSK (human); compound 10.0 µM): 99%
residual activity (MAP2K2 (human); compound 1.0 µM): 90%
residual activity (MAP2K2 (human); compound 5.0 µM): 48%
residual activity (MAPKAPK2 (human); compound 1.0 µM): 90%
residual activity (MAPKAPK2 (human); compound 5.0 µM): 69%
residual activity (MAPKAPK2 (human); compound 10.0 µM): 76%
residual activity (EPHB3 (human); compound 1.0 µM): 86%
residual activity (EPHB3 (human); compound 5.0 µM): 69%
residual activity (EPHB3 (human); compound 10.0 µM): 26%
residual activity (MAP3K7 TAB1 (human); compound 1.0 µM): 47%
residual activity (MAP3K7 TAB1 (human); compound 5.0 µM): 15%
residual activity (MAPK14 (human); compound 1.0 µM): 80%
residual activity (MAPK14 (human); compound 5.0 µM): 68%
residual activity (MAPK14 (human); compound 10.0 µM): 83%
residual activity (MAPK15 (human); compound 1.0 µM): 2%
residual activity (MAPK15 (human); compound 5.0 µM): 1%
residual activity (MAPK15 (human); compound 10.0 µM): 49%
residual activity (IGF1R (human); compound 1.0 µM): 87%
residual activity (IGF1R (human); compound 5.0 µM): 94%
residual activity (IGF1R (human); compound 10.0 µM): 84%
residual activity (PIM1 (human); compound 1.0 µM): 37%
residual activity (PIM1 (human); compound 5.0 µM): 15%
residual activity (PIM1 (human); compound 10.0 µM): 46%
residual activity (MELK (human); compound 1.0 µM): 13%
residual activity (MELK (human); compound 5.0 µM): 14%
residual activity (MELK (human); compound 10.0 µM): 97%
residual activity (MAPKAPK5 (human); compound 1.0 µM): 86%
residual activity (MAPKAPK5 (human); compound 5.0 µM): 46%
residual activity (MAPKAPK5 (human); compound 10.0 µM): 102%
residual activity (CaMK1 (human); compound 1.0 µM): 6%
residual activity (CaMK1 (human); compound 5.0 µM): 3%
residual activity (CaMK1 (human); compound 10.0 µM): 7%
residual activity (IKBKE (human); compound 1.0 µM): 7%
residual activity (IKBKE (human); compound 5.0 µM): 4%
residual activity (IKBKE (human); compound 10.0 µM): 70%
residual activity (PRKACA (human); compound 1.0 µM): 101%
residual activity (PRKACA (human); compound 5.0 µM): 92%
residual activity (PRKACA (human); compound 10.0 µM): 100%
residual activity (MAP3K11 (human); compound 1.0 µM): 9%
residual activity (MAP3K11 (human); compound 5.0 µM): 2%
residual activity (HIPK2 (human); compound 1.0 µM): 24%
residual activity (HIPK2 (human); compound 5.0 µM): 15%
residual activity (HIPK2 (human); compound 10.0 µM): 73%
residual activity (MAPK8 (human); compound 1.0 µM): 99%
residual activity (MAPK8 (human); compound 5.0 µM): 76%
residual activity (MAPK8 (human); compound 10.0 µM): 89%
residual activity (IKBKB (human); compound 1.0 µM): 33%
residual activity (IKBKB (human); compound 5.0 µM): 6%
residual activity (IKBKB (human); compound 10.0 µM): 68%
residual activity (YES1 (human); compound 1.0 µM): 59%
residual activity (YES1 (human); compound 5.0 µM): 34%
residual activity (YES1 (human); compound 10.0 µM): 60%
residual activity (MKNK2 (human); compound 1.0 µM): 97%
residual activity (MKNK2 (human); compound 5.0 µM): 78%
residual activity (MKNK2 (human); compound 10.0 µM): 87%
residual activity (EPHB2 (human); compound 1.0 µM): 137%
residual activity (EPHB2 (human); compound 5.0 µM): 169%
residual activity (DYRK1A (human); compound 1.0 µM): 47%
residual activity (DYRK1A (human); compound 5.0 µM): 19%
residual activity (DYRK1A (human); compound 10.0 µM): 83%
residual activity (MAPK12 (human); compound 1.0 µM): 97%
residual activity (MAPK12 (human); compound 5.0 µM): 99%
residual activity (MAPK12 (human); compound 10.0 µM): 103%
residual activity (BRSK1 (human); compound 1.0 µM): 29%
residual activity (BRSK1 (human); compound 5.0 µM): 24%
residual activity (CSNK1D (human); compound 1.0 µM): 96%
residual activity (CSNK1D (human); compound 5.0 µM): 94%
residual activity (MINK1 (human); compound 1.0 µM): 3%
residual activity (MINK1 (human); compound 5.0 µM): 1%
residual activity (BTK (human); compound 1.0 µM): 28%
residual activity (BTK (human); compound 5.0 µM): 19%
residual activity (BTK (human); compound 10.0 µM): 27%
residual activity (MAPK9 (human); compound 1.0 µM): 94%
residual activity (MAPK9 (human); compound 5.0 µM): 80%
residual activity (MAPK9 (human); compound 10.0 µM): 94%
residual activity (CAMKK2 (human); compound 1.0 µM): 98%
residual activity (CAMKK2 (human); compound 5.0 µM): 49%
residual activity (CAMKK2 (human); compound 10.0 µM): 90%
residual activity (EPHA4 (human); compound 1.0 µM): 98%
residual activity (EPHA4 (human); compound 5.0 µM): 89%

NC(=O)c1ccc(-c2ccc(Oc3cncc4sc(-c5nn[nH]n5)cc34)cc2)cc1
residual activity (AURKB (human); compound 1.0 µM): 84%
residual activity (AURKB (human); compound 10.0 µM): 58%
residual activity (RIPK2 (human); compound 1.0 µM): 94%
residual activity (RIPK2 (human); compound 10.0 µM): 22%
residual activity (PAK7 (human); compound 1.0 µM): 81%
residual activity (PAK7 (human); compound 10.0 µM): 66%
residual activity (DYRK2 (human); compound 1.0 µM): 7%
residual activity (DYRK2 (human); compound 10.0 µM): 2%
residual activity (PAK4 (human); compound 1.0 µM): 89%
residual activity (PAK4 (human); compound 10.0 µM): 54%
residual activity (CSK (human); compound 1.0 µM): 86%
residual activity (CSK (human); compound 10.0 µM): 100%
residual activity (MAP2K2 (human); compound 1.0 µM): 81%
residual activity (MAP2K2 (human); compound 10.0 µM): 75%
residual activity (MAPKAPK2 (human); compound 1.0 µM): 93%
residual activity (MAPKAPK2 (human); compound 10.0 µM): 85%
residual activity (EPHB3 (human); compound 1.0 µM): 93%
residual activity (EPHB3 (human); compound 10.0 µM): 96%
residual activity (MAP3K7 TAB1 (human); compound 1.0 µM): 82%
residual activity (MAP3K7 TAB1 (human); compound 10.0 µM): 75%
residual activity (MAPK14 (human); compound 1.0 µM): 106%
residual activity (MAPK14 (human); compound 10.0 µM): 98%
residual activity (MAPK15 (human); compound 1.0 µM): 85%
residual activity (MAPK15 (human); compound 10.0 µM): 2%
residual activity (IGF1R (human); compound 1.0 µM): 107%
residual activity (IGF1R (human); compound 10.0 µM): 95%
residual activity (PIM1 (human); compound 1.0 µM): 70%
residual activity (PIM1 (human); compound 10.0 µM): 18%
residual activity (MELK (human); compound 1.0 µM): 77%
residual activity (MELK (human); compound 10.0 µM): 62%
residual activity (MAPKAPK5 (human); compound 1.0 µM): 104%
residual activity (MAPKAPK5 (human); compound 10.0 µM): 56%
residual activity (CaMK1 (human); compound 1.0 µM): 105%
residual activity (CaMK1 (human); compound 10.0 µM): 85%
residual activity (IKBKE (human); compound 1.0 µM): 89%
residual activity (IKBKE (human); compound 10.0 µM): 69%
residual activity (PRKACA (human); compound 1.0 µM): 108%
residual activity (PRKACA (human); compound 10.0 µM): 72%
residual activity (MAP3K11 (human); compound 1.0 µM): 81%
residual activity (MAP3K11 (human); compound 10.0 µM): 25%
residual activity (HIPK2 (human); compound 1.0 µM): 64%
residual activity (HIPK2 (human); compound 10.0 µM): 10%
residual activity (MAPK8 (human); compound 1.0 µM): 93%
residual activity (MAPK8 (human); compound 10.0 µM): 77%
residual activity (IKBKB (human); compound 1.0 µM): 94%
residual activity (IKBKB (human); compound 10.0 µM): 64%
residual activity (YES1 (human); compound 1.0 µM): 91%
residual activity (YES1 (human); compound 10.0 µM): 87%
residual activity (MKNK2 (human); compound 1.0 µM): 94%
residual activity (MKNK2 (human); compound 10.0 µM): 58%
residual activity (EPHB2 (human); compound 1.0 µM): 106%
residual activity (EPHB2 (human); compound 10.0 µM): 99%
residual activity (DYRK1A (human); compound 1.0 µM): 21%
residual activity (DYRK1A (human); compound 10.0 µM): 3%
residual activity (MAPK12 (human); compound 1.0 µM): 86%
residual activity (MAPK12 (human); compound 10.0 µM): 65%
residual activity (BRSK1 (human); compound 1.0 µM): 110%
residual activity (BRSK1 (human); compound 10.0 µM): 90%
residual activity (CSNK1D (human); compound 1.0 µM): 90%
residual activity (CSNK1D (human); compound 10.0 µM): 59%
residual activity (MINK1 (human); compound 1.0 µM): 84%
residual activity (MINK1 (human); compound 10.0 µM): 21%
residual activity (BTK (human); compound 1.0 µM): 95%
residual activity (BTK (human); compound 10.0 µM): 71%
residual activity (MAPK9 (human); compound 1.0 µM): 99%
residual activity (MAPK9 (human); compound 10.0 µM): 85%
residual activity (CAMKK2 (human); compound 1.0 µM): 84%
residual activity (CAMKK2 (human); compound 10.0 µM): 23%
residual activity (EPHA4 (human); compound 1.0 µM): 103%
residual activity (EPHA4 (human); compound 10.0 µM): 112%

Source: the kinase profiling compilation of Christmann-Franck et al. (2016)
